In brackets after ≈: the same amount, converted by molar mass.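 Five compound concentrations were applied to cells in 96-well plates for 48 hours; endpoints were derived by simple linear interpolation of the resulting dose-response curve. At the GI50, growth is halved. TGI: total growth inhibition.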
How the values were obtained:
Experiment in all cases: growth of human tumour cells (NCI), 48 h
HL-60(TB) leukemia = test system: HL-60(TB) leukemia
MDA-MB-435 = test system: MDA-MB-435
SR leukemia = test system: SR leukemia
MOLT-4 leukemia = test system: MOLT-4 leukemia
HCC-2998 colon = test system: HCC-2998 colon
UACC-62 melanoma = test system: UACC-62 melanoma
OVCAR-4 ovarian = test system: OVCAR-4 ovarian
UACC-257 melanoma = test system: UACC-257 melanoma
RXF 393 renal = test system: RXF 393 renal
LOX IMVI melanoma = test system: LOX IMVI melanoma

Row | Compound | GI50 (HL-60(TB) leukemia) | TGI (HL-60(TB) leukemia) | GI50 (MDA-MB-435) | TGI (MDA-MB-435) | GI50 (SR leukemia) | TGI (SR leukemia) | GI50 (MOLT-4 leukemia) | TGI (MOLT-4 leukemia) | GI50 (HCC-2998 colon) [µM] | TGI (HCC-2998 colon) [µM] | GI50 (UACC-62 melanoma) | TGI (UACC-62 melanoma) | GI50 (OVCAR-4 ovarian) | TGI (OVCAR-4 ovarian) | TGI (UACC-257 melanoma) | GI50 (RXF 393 renal) [µg/mL] | TGI (RXF 393 renal) | GI50 (LOX IMVI melanoma) [µg/mL] | TGI (LOX IMVI melanoma) | GI50 (UACC-257 melanoma) [µg/mL]
1 | c1ccc(-c2c(-c3ccccc3)[n+](Cc3ccc4ccccc4c3)c(-c3ccc(-c4nc5ccccc5s4)cc3)n2Cc2ccc3ccccc3c2)cc1 | 0.149 µM | 0.471 µM | 0.209 µM | 0.557 µM | 0.14 µM | 0.756 µM | 0.139 µM | 0.759 µM | 0.244 | 1.01 | 0.236 µM | 1.25 µM | 0.0486 µM | 1.12 µM | – | – | – | – | – | –
2 | COC(=O)C(Cc1cn(C(C)n2cc(CC(NC(C)=O)C(=O)OC)c3ccccc32)c2ccccc12)NC(C)=O (stereo not given) | – | – | – | > 100 µM | – | > 100 µM | – | > 100 µM | – | > 100 | – | > 100 µM | – | > 100 µM | > 100 µM | – | – | – | – | –
3 | O=C1NN(C2=NNC3(C(=O)N2)c2ccccc2-c2ccccc23)C(c2ccccc2)=N/C1=C/c1ccc(Cl)cc1 | 50.1 µg/mL | > 150 µg/mL | 44.2 µg/mL | > 150 µg/mL | 62 µg/mL | > 150 µg/mL | 42.7 µg/mL | > 150 µg/mL | – | – | 29.8 µg/mL | 65.6 µg/mL | 62.8 µg/mL | > 150 µg/mL | > 150 µg/mL | 56.9 (≈ 104 µM) | > 150 µg/mL | 56.1 (≈ 103 µM) | > 150 µg/mL | 68 (≈ 125 µM)
4 | O=C(O)c1nc2ccc(C(F)(F)F)cc2[nH]c1=O | – | > 100 µM | – | > 100 µM | – | > 100 µM | – | > 100 µM | – | > 100 | – | > 100 µM | – | > 100 µM | > 100 µM | – | > 100 µM | – | > 100 µM | –
5 | CN(/N=C1\C(=O)Nc2ccccc21)c1ccccc1 | – | > 100 µM | – | > 100 µM | – | > 100 µM | – | > 100 µM | – | > 100 | – | > 100 µM | – | > 100 µM | > 100 µM | – | – | – | > 100 µM | –
6 | CN(C)CCNC(=O)c1cccc2c1Nc1ccccc1S2 | – | 19.2 µM | – | – | – | – | – | 29.5 µM | – | 27.2 | – | 28.4 µM | – | 26.4 µM | 27 µM | – | 23.6 µM | – | 26.2 µM | –
7 | CO/N=C1\CC(NC(=O)C(F)(F)F)c2ccsc21 (stereo not given) | – | > 100 µM | – | > 100 µM | – | > 100 µM | – | > 100 µM | – | > 100 | – | > 100 µM | – | > 100 µM | > 100 µM | – | > 100 µM | – | > 100 µM | –
8 | CC(=O)NNc1nc(C)c(C(=O)NNC(=O)C(=O)Nc2ccc([N+](=O)[O-])cc2[N+](=O)[O-])s1 | – | > 100 µM | – | – | – | > 100 µM | – | > 100 µM | – | > 100 | – | > 100 µM | – | > 100 µM | > 100 µM | – | > 100 µM | – | > 100 µM | –
9 | O=c1oc2ccccc2c(O)c1Cc1ccc(Cc2c(O)c3ccccc3oc2=O)cc1 | – | > 100 µM | – | > 100 µM | – | > 100 µM | – | > 100 µM | – | > 100 | – | > 100 µM | – | > 100 µM | > 100 µM | – | > 100 µM | – | > 100 µM | –

— PubChem BioAssay (NCI)
